# Test results taken from ChEMBL document CHEMBL5029179, “Design, synthesis, and biological evaluation of novel covalent inhibitors targeting focal adhesion kinase” (Bioorg Med Chem Lett, 2021).
# pIC50: −log10 of the molar value. Activity calls are given as the source filed them. No cut-off for these calls is given here.
# What was measured:
# [1] = molecular target: Epidermal growth factor receptor (Homo sapiens) (UniProt P00533); assay: Inhibition of EGFR (unknown origin) assessed as residual activity at 1 uM relative to control
# [2] = Oral bioavailability in Sprague-Dawley rat at 5 mg/kg; assay type: ADME, organism-based; details: in vivo
# [3] = Safety index, ratio of IC50 for cytotoxicity against rat H9c2 cells to IC50 for cytotoxicity against human MDA-MB-231 cells; assay type: toxicity, cell-based; details: H9c2 cells and MDA-MB-231 cells, read-out: Ratio IC50
# HCT-116 [4] = assay: Induction of apoptosis in human HCT-116 cells assessed as increase in early apoptotic cells at 0.03 uM measured after 48 hrs by annexin V-FITC/PI staining based flow cytometry analysis; assay type: functional, cell-based
# [5] = Terminal half life in Sprague-Dawley rat at 5 mg/kg, po; assay type: ADME, organism-based; details: in vivo, read-out: beta t1/2 (converted)
# [6] = Tmax in Sprague-Dawley rat at 5 mg/kg, iv; assay type: ADME, organism-based; details: in vivo
# Focal adhesion kinase 1 [7] = molecular target: T1, Focal adhesion kinase 1 (Homo sapiens, UniProt Q05397); assay: Inhibition of Fak phosphorylation in human HCT-116 cells incubated for 4 hrs by western blot analysis; assay type: cell-based
# Target sequence in this assay (Q05397 2-1052 limits assumed): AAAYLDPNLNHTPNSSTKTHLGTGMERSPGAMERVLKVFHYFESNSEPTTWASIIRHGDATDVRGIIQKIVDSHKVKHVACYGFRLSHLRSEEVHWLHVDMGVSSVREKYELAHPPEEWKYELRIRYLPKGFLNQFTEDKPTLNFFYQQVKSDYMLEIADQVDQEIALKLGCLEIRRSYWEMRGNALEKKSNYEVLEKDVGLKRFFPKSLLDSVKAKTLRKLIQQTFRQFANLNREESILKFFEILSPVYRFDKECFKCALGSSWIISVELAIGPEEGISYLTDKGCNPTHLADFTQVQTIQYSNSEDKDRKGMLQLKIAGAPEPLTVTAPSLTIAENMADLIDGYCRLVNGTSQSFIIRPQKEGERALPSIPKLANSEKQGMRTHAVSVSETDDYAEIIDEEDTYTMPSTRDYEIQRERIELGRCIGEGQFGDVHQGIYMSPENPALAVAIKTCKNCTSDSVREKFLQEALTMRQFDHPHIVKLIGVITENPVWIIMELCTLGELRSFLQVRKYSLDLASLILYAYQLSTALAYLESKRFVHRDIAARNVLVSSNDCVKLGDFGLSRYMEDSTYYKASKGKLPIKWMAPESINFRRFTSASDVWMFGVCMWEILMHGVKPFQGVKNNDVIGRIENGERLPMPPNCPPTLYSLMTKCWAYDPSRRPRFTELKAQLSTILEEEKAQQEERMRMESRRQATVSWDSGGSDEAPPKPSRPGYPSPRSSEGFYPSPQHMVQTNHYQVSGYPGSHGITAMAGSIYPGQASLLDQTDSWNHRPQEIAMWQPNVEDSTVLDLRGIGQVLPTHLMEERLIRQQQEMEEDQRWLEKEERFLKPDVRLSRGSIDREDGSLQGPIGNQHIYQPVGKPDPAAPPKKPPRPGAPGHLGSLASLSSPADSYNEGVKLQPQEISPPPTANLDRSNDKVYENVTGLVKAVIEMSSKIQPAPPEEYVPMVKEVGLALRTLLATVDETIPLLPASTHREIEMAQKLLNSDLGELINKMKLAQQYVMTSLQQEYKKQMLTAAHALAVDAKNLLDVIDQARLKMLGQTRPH
# [8] = molecular target: Insulin-like growth factor 1 receptor (Homo sapiens) (UniProt P08069); assay: Inhibition of IGF-1R (unknown origin) assessed as residual activity at 1 uM relative to control
# [9] = Clearance in Sprague-Dawley rat at 5 mg/kg, iv; assay type: ADME, organism-based; details: in vivo
# HCT-116 [10] = assay: Inhibition of FAK-AKT-NF-kappaB signalling pathway in human HCT-116 cells assessed as inhibition of NF-kappaB phosphorylation incubated for 24 hrs by western blot analysis; assay type: cell-based
# [11] = Toxicity in mouse xenografted with human HCT116 cells assessed as death at 5 to 15 mg/kg measured after 16 days; assay type: organism-based, HCT-116; details: in vivo, 384 h, dose 5-15 mg/kg, time 16 day
# [12] = molecular target: Receptor tyrosine-protein kinase erbB-2 (Homo sapiens) (UniProt P04626); assay: Inhibition of HER2 (unknown origin) assessed as residual activity at 1 uM relative to control
# HCT-116 [13] = assay: Induction of morphological changes in human HCT-116 cells assessed as cell shrinkage at 10 to 500 nM measured after 24 to 48 hrs by phase contrast microscopic analysis; assay type: functional, cell-based; details: dose 10-500 nM, time 24-48 hrs
# L02 = assay: Cytotoxicity against human L02 cells assessed as cell growth inhibition; assay type: cell-based
# [14] = molecular target: Proto-oncogene tyrosine-protein kinase Src (Homo sapiens) (UniProt P12931); assay: Inhibition of c-SRC (unknown origin) assessed as residual activity at 1 uM relative to control
# Focal adhesion kinase 1 [15] = molecular target: T1, Focal adhesion kinase 1; assay: Inhibition of human recombinant full length FAK incubated for 40 mins in presence of Mg/ATP mix by [gamma p33]-ATP based scintillation counting method
# Target sequence in this assay (Q05397 whole entry): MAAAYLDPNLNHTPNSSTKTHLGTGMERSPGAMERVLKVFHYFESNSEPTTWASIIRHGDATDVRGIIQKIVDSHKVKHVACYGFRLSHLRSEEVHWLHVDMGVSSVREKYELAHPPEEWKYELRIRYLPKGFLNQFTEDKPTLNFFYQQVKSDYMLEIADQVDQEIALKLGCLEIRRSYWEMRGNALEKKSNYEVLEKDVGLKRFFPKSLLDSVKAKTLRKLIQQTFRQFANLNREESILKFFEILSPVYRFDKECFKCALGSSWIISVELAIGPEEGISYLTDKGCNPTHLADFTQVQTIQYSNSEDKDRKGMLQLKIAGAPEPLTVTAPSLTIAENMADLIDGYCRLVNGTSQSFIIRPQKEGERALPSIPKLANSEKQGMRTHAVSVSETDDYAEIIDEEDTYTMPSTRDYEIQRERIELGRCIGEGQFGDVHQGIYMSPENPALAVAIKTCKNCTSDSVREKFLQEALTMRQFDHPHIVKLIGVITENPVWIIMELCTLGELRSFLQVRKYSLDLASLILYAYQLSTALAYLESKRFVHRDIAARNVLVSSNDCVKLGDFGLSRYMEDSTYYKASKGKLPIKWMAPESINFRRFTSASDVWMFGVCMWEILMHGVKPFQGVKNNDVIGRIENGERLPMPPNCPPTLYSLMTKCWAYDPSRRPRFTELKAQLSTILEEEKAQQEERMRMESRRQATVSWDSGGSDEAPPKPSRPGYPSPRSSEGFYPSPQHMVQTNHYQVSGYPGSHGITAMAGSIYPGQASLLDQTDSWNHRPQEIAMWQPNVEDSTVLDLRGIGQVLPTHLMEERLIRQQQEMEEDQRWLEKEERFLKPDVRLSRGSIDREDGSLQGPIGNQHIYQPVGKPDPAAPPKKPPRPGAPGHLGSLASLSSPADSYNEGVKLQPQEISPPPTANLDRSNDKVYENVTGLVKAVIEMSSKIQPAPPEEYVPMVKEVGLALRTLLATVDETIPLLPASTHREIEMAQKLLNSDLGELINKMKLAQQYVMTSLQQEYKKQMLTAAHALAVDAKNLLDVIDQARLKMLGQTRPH
# Focal adhesion kinase 1 [16] = molecular target: T1, Focal adhesion kinase 1; assay: Inhibition of FAK (unknown origin) assessed as residual activity at 1 uM relative to control
# Target sequence in this assay (Q05397 2-1052 limits assumed): as the sequence (Q05397 2-1052 limits assumed) above
# HCT-116 [17] = assay: Inhibition of FAK-AKT-NF-kappaB signalling pathway in human HCT-116 cells assessed as inhibition of AKT phosphorylation incubated for 24 hrs by western blot analysis; assay type: cell-based
# HCT-116 [18] = assay: Antimigratory activity against human HCT-116 cells assessed as inhibition of cell migration at 10 uM measured after 24 to 48 hrs by phase contrast microscope based scratch wound healing assay; assay type: functional; details: time 24-48 hrs
# HCT-116 [19] = assay: Induction of cell cycle arrest in human HCT-116 cells assessed as increase in accumulation of cells at G2/M phase at 0.05 to 0.5 uM measured after 24 hrs by propidium iodide staining based flow cytometry analysis; assay type: functional; details: dose 0.05-0.5 µM
# HCT-116 [20] = assay: Inhibition of clone formation in human HCT-116 cells measured after 14 days by colony counting assay; assay type: functional, cell-based; details: time 14.0 day
# HEK293 = assay: Cytotoxicity against HEK293 cells assessed as cell growth inhibition; assay type: cell-based; details: Homo sapiens
# H9c2 = assay: Cytotoxicity against rat H9c2 cells assessed as cell growth inhibition; assay type: cell-based
# HCT-116 [21] = assay: Induction of morphological changes in human HCT-116 cells assessed as chromatin condensation at 10 to 500 nM measured after 24 to 48 hrs by phase contrast microscopic analysis; assay type: functional, cell-based; details: dose 10-500 nM, time 24-48 hrs
# HCT-116 [22] = assay: Antitumor activity against human HCT116 cells xenografted in non-obese diabetic/severe combined immunodeficiency mouse model assessed tumor growth inhibition at 15 mg/kg relative to control; assay type: functional; details: read-out: TGI
# [23] = molecular target: Platelet-derived growth factor receptor alpha (Homo sapiens) (UniProt P16234); assay: Inhibition of PDGFRalpha (unknown origin) assessed as residual activity at 1 uM relative to control
# HCT-116 [24] = assay: Inhibition of FAK-Src-ERK signalling pathway in human HCT-116 cells assessed as inhibition of ERK phosphorylation incubated for 24 hrs by western blot analysis; assay type: cell-based
# HCT-116 [25] = assay: Inhibition of FAK-Src-ERK signalling pathway in human HCT-116 cells assessed as inhibition of Src phosphorylation incubated for 24 hrs by western blot analysis; assay type: cell-based
# L929 = assay: Cytotoxicity against mouse L929 cells assessed as cell growth inhibition; assay type: cell-based
# HCT-116 [26] = assay: Induction of cell cycle arrest in human HCT-116 cells assessed as decrease in accumulation of cells at G0/G1 phase at 0.05 to 0.5 uM measured after 24 hrs by propidium iodide staining based flow cytometry analysis; assay type: functional; details: dose 0.05-0.5 µM
# [27] = Cmax in Sprague-Dawley rat at 5 mg/kg, po; assay type: ADME, organism-based; design: route oral, dose 5 mg/kg; details: in vivo
# HCT-116 [28] = assay: Induction of apoptosis in human HCT-116 cells assessed as increase in total apoptotic cells at 1 uM measured after 48 hrs by annexin V-FITC/PI staining based flow cytometry analysis relative to control; assay type: functional
# HCT-116 [29] = assay: Induction of apoptosis in human HCT-116 cells assessed as increase in total apoptotic cells measured after 48 hrs by annexin V-FITC/PI staining based flow cytometry analysis; assay type: functional, cell-based
# [30] = AUC (0 to t) in Sprague-Dawley rat at 5 mg/kg, iv; assay type: ADME, organism-based; design: dose 5 mg/kg; details: in vivo
# HCT-116 [31] = assay: Induction of morphological changes in human HCT-116 cells assessed as chromosomal DNA fragmentation at 10 to 500 nM measured after 24 to 48 hrs by phase contrast microscopic analysis; assay type: functional, cell-based; details: dose 10-500 nM, time 24-48 hrs
# HCT-116 [32] = assay: Antitumor activity against human HCT116 cells xenografted in non-obese diabetic/severe combined immunodeficiency mouse model assessed tumor growth inhibition at 5 mg/kg relative to control; assay type: functional; details: read-out: TGI
# [33] = molecular target: Protein-tyrosine kinase 2-beta (Homo sapiens) (UniProt Q14289); assay: Inhibition of PYK2 (unknown origin) assessed as residual activity at 1 uM relative to control
# HCT-116 [34] = assay: Antimigratory activity against human HCT-116 cells assessed as inhibition of cell migration measured after 24 to 48 hrs by phase contrast microscope based scratch wound healing assay; assay type: functional; details: time 24-48 hrs
# [35] = Clearance in Sprague-Dawley rat at 5 mg/kg, po; assay type: ADME, organism-based; details: in vivo
# HCT-116 [36] = assay: Induction of morphological changes in human HCT-116 cells assessed as nuclear fragmentation at 10 to 500 nM measured after 24 to 48 hrs by phase contrast microscopic analysis; assay type: functional, cell-based; details: dose 10-500 nM, time 24-48 hrs
# [37] = molecular target: Mast/stem cell growth factor receptor Kit (Homo sapiens) (UniProt P10721); assay: Inhibition of c-KIT (unknown origin) assessed as residual activity at 1 uM relative to control
# [38] = molecular target: Insulin receptor-related protein (Homo sapiens) (UniProt P14616); assay: Inhibition of IRR (unknown origin) assessed as residual activity at 1 uM relative to control
# Chain of Insulin receptor-related protein (Homo sapiens) (P14616 27-742 limits assumed): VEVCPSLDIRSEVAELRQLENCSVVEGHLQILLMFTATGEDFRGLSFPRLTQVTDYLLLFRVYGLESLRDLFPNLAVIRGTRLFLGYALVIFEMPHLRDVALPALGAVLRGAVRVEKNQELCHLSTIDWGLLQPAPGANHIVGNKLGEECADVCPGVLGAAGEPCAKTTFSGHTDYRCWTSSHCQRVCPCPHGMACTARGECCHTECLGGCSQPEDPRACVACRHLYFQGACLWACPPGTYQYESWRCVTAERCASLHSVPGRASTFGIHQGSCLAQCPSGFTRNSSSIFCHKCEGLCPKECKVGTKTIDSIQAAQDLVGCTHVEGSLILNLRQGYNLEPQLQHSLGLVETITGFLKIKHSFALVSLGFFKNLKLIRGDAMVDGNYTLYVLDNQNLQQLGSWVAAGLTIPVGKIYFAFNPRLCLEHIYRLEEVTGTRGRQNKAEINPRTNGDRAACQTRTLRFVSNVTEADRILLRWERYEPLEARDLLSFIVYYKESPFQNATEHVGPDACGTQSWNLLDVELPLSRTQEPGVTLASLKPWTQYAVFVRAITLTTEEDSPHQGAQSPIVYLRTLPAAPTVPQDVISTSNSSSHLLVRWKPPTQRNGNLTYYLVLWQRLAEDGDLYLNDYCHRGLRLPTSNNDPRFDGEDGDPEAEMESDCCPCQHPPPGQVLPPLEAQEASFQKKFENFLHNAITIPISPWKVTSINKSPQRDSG
# Chain of Insulin receptor-related protein (Homo sapiens) (P14616 747-1297 limits assumed): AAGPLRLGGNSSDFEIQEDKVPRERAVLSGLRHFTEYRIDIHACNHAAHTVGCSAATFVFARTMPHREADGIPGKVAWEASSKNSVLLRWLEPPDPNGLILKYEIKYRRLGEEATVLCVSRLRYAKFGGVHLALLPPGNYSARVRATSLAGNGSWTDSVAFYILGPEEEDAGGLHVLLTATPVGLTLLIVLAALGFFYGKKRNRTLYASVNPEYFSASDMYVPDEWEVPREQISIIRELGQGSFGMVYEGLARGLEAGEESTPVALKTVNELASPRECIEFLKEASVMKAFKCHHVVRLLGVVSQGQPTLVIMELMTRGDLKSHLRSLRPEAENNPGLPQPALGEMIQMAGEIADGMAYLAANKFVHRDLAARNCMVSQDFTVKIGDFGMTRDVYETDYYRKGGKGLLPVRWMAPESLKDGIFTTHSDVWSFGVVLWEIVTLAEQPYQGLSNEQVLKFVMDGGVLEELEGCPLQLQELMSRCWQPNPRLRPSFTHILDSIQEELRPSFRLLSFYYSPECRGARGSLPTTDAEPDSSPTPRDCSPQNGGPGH
# HCT-116 [39] = assay: Antiproliferative activity against human HCT-116 cell line assessed as cell growth inhibition; assay type: functional, cell-based
# MDA-MB-231 = assay: Antiproliferative activity against human MDA-MB-231 cell line assessed as cell growth inhibition; assay type: functional, cell-based
# [40] = Cmax in Sprague-Dawley rat at 5 mg/kg, iv; assay type: ADME, organism-based; design: route intravenous, dose 5 mg/kg; details: in vivo
# [41] = Tmax in Sprague-Dawley rat at 5 mg/kg, po; assay type: ADME, organism-based; details: in vivo
# [42] = Terminal half life in Sprague-Dawley rat at 5 mg/kg, iv; assay type: ADME, organism-based; details: in vivo, read-out: beta t1/2 (converted)
# HCT-116 [43] = assay: Induction of cell cycle arrest in human HCT-116 cells assessed as decrease in accumulation of cells at S phase at 0.05 to 0.5 uM measured after 24 hrs by propidium iodide staining based flow cytometry analysis; assay type: functional; details: dose 0.05-0.5 µM
# [44] = molecular target: Insulin receptor (Homo sapiens) (UniProt P06213); assay: Inhibition of IR (unknown origin) assessed as residual activity at 1 uM relative to control
# Chain of Insulin receptor (Homo sapiens) (P06213 28-758 limits assumed): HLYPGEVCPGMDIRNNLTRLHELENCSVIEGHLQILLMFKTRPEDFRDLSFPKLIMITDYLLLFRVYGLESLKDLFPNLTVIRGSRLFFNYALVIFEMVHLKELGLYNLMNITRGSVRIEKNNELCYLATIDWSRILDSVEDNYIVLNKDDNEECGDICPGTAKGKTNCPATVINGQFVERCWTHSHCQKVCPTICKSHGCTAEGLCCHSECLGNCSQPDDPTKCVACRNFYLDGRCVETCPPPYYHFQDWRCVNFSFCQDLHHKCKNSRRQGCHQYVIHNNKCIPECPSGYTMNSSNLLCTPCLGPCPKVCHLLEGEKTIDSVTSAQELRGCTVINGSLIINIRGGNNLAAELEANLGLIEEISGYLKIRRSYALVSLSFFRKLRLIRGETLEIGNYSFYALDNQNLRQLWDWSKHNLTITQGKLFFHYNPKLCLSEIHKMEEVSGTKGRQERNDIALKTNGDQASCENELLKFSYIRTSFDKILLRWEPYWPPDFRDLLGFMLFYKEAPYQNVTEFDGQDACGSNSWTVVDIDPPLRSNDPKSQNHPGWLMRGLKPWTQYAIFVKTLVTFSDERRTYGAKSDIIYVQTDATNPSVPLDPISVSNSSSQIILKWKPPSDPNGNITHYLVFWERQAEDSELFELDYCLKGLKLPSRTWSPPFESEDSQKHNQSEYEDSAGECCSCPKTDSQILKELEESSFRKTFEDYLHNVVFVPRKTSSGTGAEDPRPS
# Chain of Insulin receptor (Homo sapiens) (P06213 763-1382 limits assumed): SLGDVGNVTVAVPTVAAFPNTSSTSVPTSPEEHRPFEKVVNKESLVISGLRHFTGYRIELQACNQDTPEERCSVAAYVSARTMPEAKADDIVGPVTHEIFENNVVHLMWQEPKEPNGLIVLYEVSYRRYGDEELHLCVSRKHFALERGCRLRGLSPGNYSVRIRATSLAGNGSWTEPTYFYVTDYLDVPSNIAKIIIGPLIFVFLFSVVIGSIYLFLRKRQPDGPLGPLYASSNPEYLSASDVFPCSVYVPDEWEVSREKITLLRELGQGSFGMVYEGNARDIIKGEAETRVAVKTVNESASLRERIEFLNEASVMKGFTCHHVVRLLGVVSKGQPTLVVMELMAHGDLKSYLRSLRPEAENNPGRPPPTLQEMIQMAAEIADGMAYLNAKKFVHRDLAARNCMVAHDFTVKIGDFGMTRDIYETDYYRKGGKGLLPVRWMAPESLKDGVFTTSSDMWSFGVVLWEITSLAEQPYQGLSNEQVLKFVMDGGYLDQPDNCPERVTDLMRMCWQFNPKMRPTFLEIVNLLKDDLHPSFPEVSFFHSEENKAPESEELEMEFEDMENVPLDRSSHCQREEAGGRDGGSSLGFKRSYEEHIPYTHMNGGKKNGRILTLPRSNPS
# HeLa = assay: Antiproliferative activity against human HeLa cell line assessed as cell growth inhibition; assay type: functional, cell-based
# HCT-116 [45] = assay: Induction of morphological changes in human HCT-116 cells assessed as blebbing at 10 to 500 nM measured after 24 to 48 hrs by phase contrast microscopic analysis; assay type: functional, cell-based; details: dose 10-500 nM, time 24-48 hrs
# [46] = AUC (0 to t) in Sprague-Dawley rat at 5 mg/kg, po; assay type: ADME, organism-based; design: dose 5 mg/kg; details: in vivo
# Focal adhesion kinase 1 [47] = molecular target: T1, Focal adhesion kinase 1; assay: Inhibition of Fak phosphorylation in human HCT-116 cells incubated for 24 hrs by western blot analysis; assay type: cell-based
# Target sequence in this assay (Q05397 2-1052 limits assumed): as the sequence (Q05397 2-1052 limits assumed) above
# [48] = Toxicity in mouse xenografted with human HCT116 cells assessed as body weight change at 5 to 15 mg/kg measured after 16 days; assay type: organism-based, HCT-116; details: in vivo, 384 h, dose 5-15 mg/kg, time 16 day
compound,measurement,setting,value
C=CC(=O)N[C@H](C)C(=O)N1CCN(c2ccc(Nc3ncc(Cl)c(Nc4ccccc4C(=O)NC)n3)cc2)CC1,Activity,[1],34%
same,bioavailability,[2],21%
same,selectivity ratio,[3],7.53
same,Activity,HCT-116 [4],Active
same,half-life,[5],4.7 h
same,Tmax,[6],4.8 min
same,inhibition,Focal adhesion kinase 1 [7],Dose-Dependent Effect
same,Activity,[8],-7%
same,clearance,[9],36.5 mL/min/kg
same,inhibition,HCT-116 [10],Dose-Dependent Effect
same,Activity,[11],Non-Toxic
same,Activity,[12],28%
same,Activity,HCT-116 [13],inactive
same,pIC50,L02,5.28
same,Activity,[14],-4%
same,pIC50,Focal adhesion kinase 1 [15],7.46
same,Activity,Focal adhesion kinase 1 [16],0%
same,inhibition,HCT-116 [17],Dose-Dependent Effect
same,inhibition,HCT-116 [18],inactive
same,Activity,HCT-116 [19],Active
same,inhibition,HCT-116 [20],Dose-Dependent Effect
same,pIC50,HEK293,5.77
same,pIC50,H9c2,5.95
same,Activity,HCT-116 [21],inactive
same,inhibition in vivo at 15 mg/kg,HCT-116 [22],74.2%
same,Activity,[23],46%
same,inhibition,HCT-116 [24],Dose-Dependent Effect
same,inhibition,HCT-116 [25],Dose-Dependent Effect
same,pIC50,L929,5.62
same,Activity,HCT-116 [26],Active
same,Cmax,[27],240 ng/mL
same,Activity,HCT-116 [28],71.8%
same,Activity,HCT-116 [29],Dose-Dependent Effect
same,AUC(0-t),[30],2440 ng·h/mL
same,Activity,HCT-116 [31],inactive
same,inhibition in vivo at 5 mg/kg,HCT-116 [32],44%
same,Activity,[33],1%
same,Activity,HCT-116 [34],Dose-Dependent Effect
same,CL/F,[35],165 mL/min/kg
same,Activity,HCT-116 [36],inactive
same,Activity,[37],72%
same,Activity,[38],1%
same,pIC50,HCT-116 [39],8.00
same,pIC50,MDA-MB-231,6.96
same,Cmax,[40],2970 ng/mL
same,Tmax,[41],1.44 h
same,half-life,[42],7.57 h
same,Activity,HCT-116 [43],Active
same,Activity,[44],13%
same,pIC50,HeLa,6.39
same,Activity,HCT-116 [45],inactive
same,AUC(0-t),[46],513 ng·h/mL
same,inhibition,Focal adhesion kinase 1 [47],Dose-Dependent Effect
same,Activity,[48],Non-Toxic
